# Measured values from US11591298B2, “Bisaminoquinoline compounds, pharmaceutical compositions prepared therefrom and their use” (THE TRUSTEES OF THE UNIVERSITY OF PENNSYLVANIA, priority 2011, dated 2023).
# Experiments:
# [1] = tested on: LC3II/LC3I ratio in LN229 cells; experiment: LC3 immunoblotting (LC3II/LC3I ratio) in LN229 cells; type: cell-based, human; conditions: concentration of 10 μM, 4 hours
# Protocol: FIG. 3. Effects of Lys01-Lys04 on LC3 immunoblotting Immunoblotting and quantification of LC3II/LC3I ratio in lysates from LN229 cells treated for 4 hours. The graphs show (mean+/−SD) LC3II/LC3I ratios of each treatment normalized to the LC3II/LC3I ratio of control treated cells for each experiment.
# LN229 (human glioblastoma) were treated with Lys01 and derivatives Lys02, Lys03, Lys04, HCQ and CQ. […] LC3 is a ubiquitin-like protein which exists as an unconjugated form (LC3I) or conjugated to AV membranes (LC3II) (25). The ratio of LC3II/LC3I reflects the accumulation of AV in cells, and therefore effective autophagy inhibition.
# [2] = tested on: LN229 (human glioblastoma); experiment: Cell death of cultured LN229 cells; type: cell-based; conditions: concentrations of 10 μM or higher, between 4-24 hours
# LN229 GFP-LC3 cells = experiment: GFP-LC3 puncta imaging in LN229 GFP-LC3 cells; type: cell-based, human; conditions: for GFP-LC3 punctate fluorescence: within 4 hours
# Protocol: Autophagy inhibition and cytotoxicity of Lys01 compared to HCQ (4A) Representative images of LN229 GFP-LC3 cells treated as indicated for 4 hours. White arrows: small puncta; red arrows: dense puncta. Graphs show mean+/−SEM puncta/cell. (4B) Representative electron micrographs of LN229-GFP-LC3 cells treated (4 hours) with DMSO, HCQ 10 μM, or Lys01 10 μM Arrows: Autophagic vesicles. (4C) LC3 immunoblotting of LN229 cells treated for 24 hours an indicated; calculated ratio of LC3II/LC3I ratios for bafilomycin versus control co-treatment. […] Values presented are means+/−SEM with 5 replicates per treatment.
# To determine if Lys01 treatment was inducing production of new autophagic vesicles (an autophagy inducer) or blocking the clearance of autophagy vesicles (an autophagy inhibitor), a bafilomycin clamp experiment was performed (FIG. 4C). LN229 GFP-LC3 cells were treated with DMSO, rapamycin, HCQ 10 μM, and Lys01 10 μM, in the absence or presence of bafilomycin.
# [3] = tested on: LN229 (glioma), 1205Lu (melanoma), HT-29 (colon) and c8161 (melanoma) cells; experiment: MTT assay (72 hours) in 4 cell lines; type: cell-based; conditions: range over the 4 cell lines tested
# Protocol: FIGS. 4A, 4B, 4C, 4D. […] White arrows: small puncta; red arrows: dense puncta. Graphs show mean+/−SEM puncta/cell. (4B) Representative electron micrographs of LN229-GFP-LC3 cells treated (4 hours) with DMSO, HCQ 10 μM, or Lys01 10 μM Arrows: Autophagic vesicles. (4C) LC3 immunoblotting of LN229 cells treated for 24 hours an indicated; calculated ratio of LC3II/LC3I ratios for bafilomycin versus control co-treatment. […] (4D) MTT assay (72 hours) for 4 cell lines. Red: Lys01, Blue: Lys02, Purple: Lys03 Green: Lys04 Orange: HCQ. Values presented are means+/−SEM with 5 replicates per treatment.
# The MTT assay was used to assess viable cells at 72 hours.
# 1205Lu = experiment: Cell death after 24 hours in 1205Lu cells; type: cell-based; conditions: 10 μM
# HCC827 = experiment: Cell death after 24 hours in HCC827 cells; type: cell-based; conditions: 10 μM
# c8161 cells [4] = experiment: Immunoblotting against LC3 and p62 in c8161 cells; type: cell-based; conditions: Lys01 versus Lys05
# Protocol: (§1) FIGS. 5A, 5B. […] (5A) Immunoblotting against LC3 and p62 in c8161 cells treated as indicated (5B) MTT assay in c8161 cells at 72 hours. HCQ: Hydroxychloroquine.
# (§2) Lys05, the trihydrochloride salt of Lys01 was synthesized to enhance aqueous solubility and to enable in vivo studies. […] To investigate the safety of Lys05 and its in vivo effects on autophagy, c8161 xenografts matched for tumor size were treated with intraperitoneal (i.p.) daily PBS, or equimolar doses of HCQ or Lys05 (HCQ 60 mg/kg (138 nmoles/g), Lys05 76 mg/kg (138 nmoles/g)) for 48 hours. […] After 48 hours of treatment mice were euthanized, and tumors were processed for electron microscopy (EM).
# c8161 cells [5] = experiment: MTT assay in c8161 cells at 72 hours; type: cell-based; conditions: Lys01 versus Lys05
# Protocol: as §1, §2
# P. falciparum = P. falciparum strains grown in vitro in human RBC (Table 2, FIG. 17); type: cell-based; conditions: some CQ-resistant cell lines; values only in FIG. 17
# Excerpt: FIG. 17, Table 2 provides IC50 (M) values of a number of compounds according to the present invention in P. falciparum.
# There is a similar activity profile for anticancer activity of Lys01 derivatives and malaria cytotoxicity.
compound,measurement,setting,value
CN(CCNc1ccnc2cc(Cl)ccc12)CCNc1ccnc2cc(Cl)ccc12 [Lys01],potency as autophagy inhibitor relative to HCQ or CQ (LC3 immunoblotting),[1],> 10 fold
same,cell death of cultured cells,[2],Near complete cell death
same,GFP-LC3 punctate fluorescence,LN229 GFP-LC3 cells; 1 μM,numerous small puncta
same,"increase in GFP-LC3 puncta per cell, 10 μM Lys01 compared to 10 μM HCQ","LN229 GFP-LC3 cells; 10 μM, 4 hours",5 fold
same,GFP-LC3 punctate fluorescence,LN229 GFP-LC3 cells; 10 μM,dense puncta
same,cell death,LN229 GFP-LC3 cells; 100 μM,dead by 4 hours
same,average number of vesicles per cell,LN229 GFP-LC3 cells; Lys01 10 μM versus 100 μM HCQ,higher than in cells treated with 100 μM HCQ
same,IC50,[3],4 to 8 µM
same,cell death,1205Lu,Near complete cell death
same,cell death,HCC827,Near complete cell death
same,LC3II/LC3I ratio,c8161 cells [4],equivalent dose-dependent increases
same,autophagy cargo protein p62,c8161 cells [4],accumulation
same,IC50 values in the MTT assay,c8161 cells [5],identical
same,"IC50, activity compared to artesunate",P. falciparum,more active than artesunate
